Test results reported in patent publication US20250320471A1, “Method for Producing Compounds, Method for Producing Compound Library, Compound Library, and Screening Method” (The University of Tokyo, priority 2021, published 2025).
Values joined by “and” are separate entries in the source; they are usually repeats but may differ in a detail not shown here. Equal entries are not always repeated. Peptide text beside a SMILES is read from it.

What was measured:
LimF [1] = assay: Steady-state kinetics of prenylation facilitated by LimF (wild type); assay type: biochemical, Limnothrix sp. CACIAM 69d; settings: His-prenylation (C10), 1 mM GPP, 40 mM MgCl2, pH 7.2, 25° C.
Experimental: Under optimal conditions, the steady-state kinetic parameters of the prenylation reaction of bcLimE2 facilitated by LimF were measured by the methods described below.
The concentration dependence of GPP and MgCl2 in bcLimE2 prenylation reactions facilitated by LimF was measured in reaction systems containing 1 μM LimF, 1 mM or a suitably modified concentration of GPP, 50 mM HEPES pH 7.2, 0.4 mM substrate, 1 mM DTT, and 40 mM or a suitably modified concentration of MgCl2. A reaction solution containing components other than GPP was prepared and preheated to 25° C., and the reaction was then started by adding GPP. After incubating at 25° C., the reaction was stopped at each point and analyzed by LC-MS. Next, the initial rate was calculated as the slope of increase in the amount of prenylation product produced in the linear region. Three separate reactions were carried out under each condition and the mean and standard deviation of the results were used for the analysis.
For GPP concentration dependence and peptide substrate concentration dependence, the kinetic parameters were estimated by fitting the initial rate and GPP substrate concentration or peptide substrate concentration to the Michaelis-Menten model in Graphpad Prism 8.4.2 (GraphPad Prism Software Inc., San Diego, California) software.
Kinetic parameters of the His-prenylation reaction facilitated by LimF were determined based on reactions under optimal conditions using substrates of different concentrations. For the Tyr-prenylation described below, the kinetic parameters were measured under the same conditions except that LimF was set to 5 μM and the reaction temperature was set to 16° C. In order to estimate the kinetic parameters, the initial rate and substrate concentration were fitted to the Michaelis-Menten model in Graphpad Prism 8.4.2 software.
In order to further evaluate the two different prenylation modes by LimF, two teMPs (teR6-H5A/Y7H and teR6-H5A) that undergo efficient His-prenylation and Tyr-prenylation, respectively, were designed and chemically synthesized. Kinetic analysis was carried out according to the above method using these peptides.

LimF [2] = assay: Initial evaluation of LimF with estimated substrates bcLimE1-3 (LC-MS); assay type: biochemical, Limnothrix sp. CACIAM 69d; settings: for geranylation by LimF (LC-MS): 20 μM LimF, 20 μM peptide, 2 mM geranyl pyrophosphate, 20 mM MgCl2, pH 7.5, 37° C., 12 hours
Experimental: In order to examine the enzymatic activity of LimF, LimF was heterologously-expressed in Escherichia coli using the method described above and incubated with chemically synthesized bcLimE1, bcLimE2 or bcLimE3 in the presence of MgCl2 and a prenyl group donor (geranyl pyrophosphate (GPP)). The reaction conditions were as described below.
First, the same experiment as described above was performed using farnesyl pyrophosphate instead of geranyl pyrophosphate as a prenyl group donor. As a result, a trace amount of farnesylated bcLimE2 was generated, although at a lower efficiency than when GPP was used.
The initial evaluation of LimF using estimated substrates (bcLimE1, bcLimE2, and bcLimE3) was performed as follows. An enzymatic reaction was performed for 12 hours at 37° C. under the conditions of LimF (20 μM), peptide substrate (20 μM), prenyl group donor (geranyl pyrophosphate or farnesyl pyrophosphate) (2 mM), HEPES (50 mM, pH 7.5), MgCl2 (20 mM), and DTT (1 mM). After reacting the substrates bcLimE1, bcLimE2, and bcLimE3 for 12 hours at 37° C., respectively, nine times the amount of 1% TFA was added and centrifuged at 4° C. (15300×g, 10 minutes), and a supernatant was recovered. 10 μL of the obtained supernatant was subjected to LC-MS analysis.

LimF [3] = assay: FIT-LimF system: one-pot in vitro expression and prenylation of teMPs; assay type: biochemical, Limnothrix sp. CACIAM 69d; settings: 16 hours; for Modification Efficiency % (Tyr prenylation): FIT-LimF system, 20 μM LimF
From the text: First, teMP (teLimE2) mimicking the sequence of bcLimE2 was designed and expressed by genetic code reprogramming using customized cell-free translation, and the so-called flexible in vitro translation (FIT) system (Goto, Y, Katoh, T. & Suga, Flexizymes for genetic code reprogramming. Nat. Protoc., 6, 779-790 (2011)). Specifically, the AUG start codon was reprogrammed with N-chloroacetyl-D-phenylalanine (^ClAcD-F), a linear precursor having a chloroacetyl group (ClAc group) at the N-terminal was expressed, and a thioether bond was formed by a spontaneous ring-closing SN2 reaction with a downstream Cys thiol (FIG. 7a). Note that the FIT system had the composition described below.
teLimE2 expressed in vitro was incubated for 16 hours at 25° C. in the presence of 100 μM LimF and analyzed by LC-MS. […] The in vitro translation system conjugated with LimF will be referred to hereinafter as the FIT-LimF system.
38 types of teLimE2 variants in which the His-1 and His+1 positions were substituted with 19 types of proteinogenic amino acid other than Cys were designed and then expressed and modified in the FIT-LimF system. The reaction results were analyzed by LC-MS. In the present experiment, the prenylation process was performed under intentionally poor modification efficiency conditions by using a low LimF concentration (10 μM). This allowed for more accurate investigation of the influence of His−1 and His+1 amino acids.
The following series of experiments examined whether teMPs of various ring sizes were tolerated by LimF. Thirteen teMP variants with different ring sizes (4 to 18 residues) and a preferred local sequence motif (Ser-His-Ala/Cys) were designed.
Next, it was shown that LimF can modify teMPs having a variety of random sequences. Five teMPs composed of random sequences were expressed and modified using the FIT-LimF system (LimF concentration: 10 μM) (FIG. 7e). […]
Target sequence in this assay (as listed by the source): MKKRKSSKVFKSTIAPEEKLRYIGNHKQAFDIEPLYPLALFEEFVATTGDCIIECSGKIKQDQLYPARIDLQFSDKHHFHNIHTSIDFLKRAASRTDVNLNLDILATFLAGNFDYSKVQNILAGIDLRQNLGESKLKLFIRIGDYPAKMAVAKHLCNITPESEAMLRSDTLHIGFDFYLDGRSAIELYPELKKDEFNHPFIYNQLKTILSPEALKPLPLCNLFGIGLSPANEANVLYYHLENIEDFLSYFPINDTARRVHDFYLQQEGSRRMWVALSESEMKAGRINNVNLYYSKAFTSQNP

bcLimE2 [4] = assay: Prenyl group donor tolerance of LimF variants (conversion of bcLimE2); assay type: biochemical; parameters: key to Final Conversion Efficiency: “n.r.” indicates that the reaction did not proceed; settings: for Final Conversion Efficiency: substrate bcLimE2
Experimental: An attempt was made to change the selectivity of LimF with respect to prenyl group donors examined in “2. Evaluation of Enzymatic Activity of LimF” by introducing a mutation into LimF. […], illustrated in FIG. 7(a), was used as the substrate.
For the assay of LimF variants, 100 μM bcLimE2 was incubated individually at a 5 μL scale with 20 to 100 μM LimF variants under conditions of 1 mM GPP or DMAPP, 50 mM HEPES (pH 7.2), 40 mM MgCl2, 1 mM DTT, and DMSO (4%, v/v). After incubating for 16 hours at 25° C., the reaction was stopped by adding 9 times the amount (45 μL) of a 1% TFA aqueous solution. Next, the mixture was incubated on ice for 10 minutes, a precipitate was separated by centrifugation at 4° C. (15300×g, 10 minutes), and 1 μL of supernatant was subjected to LC-MS analysis.
An amino acid forming a small pocket that stores a prenyl group in the crystal structure was selected for the introduction site of the LimF mutation. Specifically, Gly at position 224 was selected, and this was substituted with a larger amino acid. […] This alignment supports the hypothesis that the 224th Gly contributes to prenyl group selectivity.
For the assay of LimF variants, 100 μM bcLimE2 was incubated individually at a […] with 20 to 100 μM LimF variants under conditions of 1 mM GPP or FPP, 50 mM HEPES (pH 7.2), 5 mM MgCl2, 1 mM DTT, and DMSO (4%, v/v). After incubating for 16 hours at 25° C., the reaction was stopped by adding 9 times the amount ([…]) of a 1% TFA aqueous solution. Next, the mixture was incubated on ice for 10 minutes, a precipitate was separated by centrifugation at 4° C. (15300×g, 10 minutes), and 1 μL of supernatant was subjected to LC-MS analysis.
An amino acid forming a small pocket that stores a prenyl group in the crystal structure was selected for the introduction site of the LimF mutation. Specifically, the amino acids at the positions described in the table in the left column of FIG. 19 were replaced with relatively small Ala.
Therefore, substitution of amino acids other than Ala with respect to the W273 position was comprehensively performed (middle column of FIG. 19). As a result, The mutation for W273N and W273T are focused, and in addition to the W273N mutation and the W273T mutation, simultaneous substitution with various amino acids was performed for His at 239, which is an amino acid adjacent to position 273 (right column of FIG. 19).

bcLimE2 [5] = target: T1, bcLimE2
T1 chain: RYPHEEIP

Molecule: CCC(C)C1NC(=O)C(CCC(=O)O)NC(=O)C(CCC(=O)O)NC(=O)C(Cc2c[nH]cn2)NC(=O)C2CCCN2C(=O)C(Cc2ccc(O)cc2)NC(=O)C(CCCNC(=N)N)NC(=O)C2CCCN2C1=O (stereo not shown) [bcLimE2] (cyclo(EEIPRYPH); configuration not given here)
- Kcat (LimF [1]): 0.23 ± 0.01 s⁻¹
- Km (LimF [1]): 313 µM and 310 µM
- Kcat (LimF [1]; listed as cyclo[RYPHEEIP]): 0.23 s⁻¹
- geranylation by LimF (LC-MS) (LimF [2]): quantitatively converted
- farnesylation by LimF (LimF [2]; farnesyl pyrophosphate instead of GPP as prenyl group donor, otherwise as geranylation test): trace amount

Molecule: CCC(C)C1NC(=O)C(CC(N)=O)NC(=O)C(C(C)O)NC(=O)C(C(C)CC)NC(=O)C2CCCN2C(=O)C(CC(=O)O)NC(=O)C(Cc2ccc(O)cc2)NC(=O)C(Cc2ccccc2)NC1=O (stereo not shown) [bcLimE3] (cyclo(DPITNIFY); configuration not given here)
- geranylation by LimF (LC-MS) (LimF [2]): not subjected to geranylation

Molecule: DHis
- prenylation by LimF in FIT-LimF system (LimF [3]; 100 μM LimF, 25° C., LC-MS): favorable substrates

Molecule: tecyclo [y I T N I A Y D P C] (ITNIAYDPC; not fully specified; cyclized with D-Tyr)
- Modification Efficiency % (Tyr prenylation) (LimF [3]): 1%

Molecule: tecyclo [y I T N I T Y D P C] (ITNITYDPC; not fully specified; cyclized with D-Tyr)
- Modification Efficiency % (Tyr prenylation) (LimF [3]): 21%

B1: LimF-H239G/W273T (protein)
chain: MKKRKSSKVFKSTIAPEEKLRYIGNHKQAFDIEPLYPLALFEEFVATTGDCIIECSGKIKQDQLYPARIDLQFSDKHHFHNIHTSIDFLKRAASRTDVNLNLDILATFLAGNFDYSKVQNILAGIDLRQNLGESKLKLFIRIGDYPAKMAVAKHLCNITPESEAMLRSDTLHIGFDFYLDGRSAIELYPELKKDEFNHPFIYNQLKTILSPEALKPLPLCNLFGIGLSPANEANVLYYGLENIEDFLSYFPINDTARRVHDFYLQQEGSRRMTVALSESEMKAGRINNVNLYYSKAFTSQNP
- C15 prenylation (farnesylation) selectivity and efficiency (bcLimE2 [4]; 100 μM bcLimE2, 1 mM GPP or FPP, 5 mM MgCl2, 16 hours, 25° C.): high selectivity and high efficiency
- Final Conversion Efficiency (bcLimE2 [4]; prenyl group donor DMAPP): n.r.
- Final Conversion Efficiency (bcLimE2 [4]; prenyl group donor FPP): >99%
- Final Conversion Efficiency (bcLimE2 [4]; prenyl group donor GGPP): n.r.
- Final Conversion Efficiency (bcLimE2 [4]; prenyl group donor GPP): 16.9%
- KM (mM), kinetics of prenylation of bcLimE2 with FPP as prenyl group donor (bcLimE2 [5]): 0.62 mM
- KM (mM), kinetics of prenylation of bcLimE2 with GPP as prenyl group donor (bcLimE2 [5]): 0.58 mM
